Assay results reported in the supplement of paper PMC12420376.

Columns and labels:
[1] = test system: KURAMOCHI; assay: drug sensitivity score (DSS2) on cancer cell count; higher = more sensitive; extreme values may be limits of the assay; conditions: 72 h
Summary of the method: (§1)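 Screen quality was checked by Z', and a drug sensitivity score was derived in Breeze from logistic fits of the cancer cell counts. These counts were obtained by imaging at 10× (4 fields) after fixing and immunostaining for CK8/18 with Hoechst. Before that, ovarian cancer cells, alone or in 1:1 direct co-culture with lung or skin fibroblasts, had been treated for 72 h on 384-well plates acoustically pre-spotted with 528 approved and investigational compounds at 5 concentrations.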

[2] = test system: OVCAR8; assay: as above; conditions: 72 h
Summary of the method: as §1

[3] = co-cultured fibroblast: BJHTERT
[4] = co-cultured fibroblast: none (monoculture)

Compound | drug sensitivity score [1, 3] | drug sensitivity score ([1]; co-cultured fibroblast: WI38) | drug sensitivity score [1, 4] | drug sensitivity score [2, 3] | drug sensitivity score ([2]; co-cultured fibroblast: WI38) | drug sensitivity score [2, 4]
Cc1cccc(-c2[nH]c(CNc3ccccc3F)nc2-c2ccc3ncnn3c2)n1 [TEW-7197] | 0 DSS | 0 DSS | 0 DSS | 11.2 DSS | 16.2 DSS | 4.2 DSS
CC(C)Oc1ccc(-c2nn([C@@H](C)c3oc4ccc(F)cc4c(=O)c3-c3cccc(F)c3)c3ncnc(N)c23)cc1F [TGR-1202] | 0 DSS | 0 DSS | 0 DSS | 0 DSS | 0 DSS | 0 DSS
Cc1cc(C(C)Nc2ccccc2)c2nc(N3CCOCC3)cc(=O)n2c1 (centres undefined) [TGX-221] | 7.7 DSS | 0 DSS | 4 DSS | 8.5 DSS | 7.2 DSS | 0 DSS
Nc1nc(NC2CC2)cc(-c2cccc(Cl)c2Cl)n1 [TH588] | 6 DSS | 6.7 DSS | 6.5 DSS | 7.4 DSS | 4.5 DSS | 3.3 DSS
Clc1ccccc1C(c1ccccc1)(c1ccccc1)n1cccn1 [TRAM-34] | 0 DSS | 0 DSS | 0 DSS | 0 DSS | 0 DSS | 0 DSS
CC(=O)Nc1ccc(C(=O)Nc2ccccc2N)cc1 [Tacedinaline] | 0 DSS | 2.6 DSS | 3.7 DSS | 0 DSS | 0 DSS | 1.8 DSS
C=CC[C@@H]1/C=C(\C)C[C@H](C)C[C@H](OC)[C@H]2O[C@@](O)(C(=O)C(=O)N3CCCC[C@H]3C(=O)O[C@H](/C(C)=C/[C@@H]3CC[C@@H](O)[C@H](OC)C3)[C@H](C)[C@@H](O)CC1=O)[C@H](C)C[C@@H]2OC [Tacrolimus] | 1 DSS | 1 DSS | 18.5 DSS | 0.8 DSS | 0 DSS | 3.1 DSS
CN(C(=O)c1ccc(F)cc1C(F)(F)F)C1CCN(c2nnc(-c3ccnn3C)c3ccccc23)CC1 [Taladegib] | 0 DSS | 0 DSS | 0 DSS | 0 DSS | 0 DSS | 0 DSS
Cn1ncnc1[C@H]1c2n[nH]c(=O)c3cc(F)cc(c23)N[C@@H]1c1ccc(F)cc1 [Talazoparib] | 10.5 DSS | 15 DSS | 16.3 DSS | 19.5 DSS | 15.3 DSS | 15.8 DSS
C[C@@H]1CN(Cc2ccc(F)cc2)[C@@H](C)CN1C(=O)c1cc2c(C(=O)C(=O)N(C)C)cn(C)c2cc1Cl [Talmapimod] | 1.2 DSS | 0 DSS | 0 DSS | 2.8 DSS | 0 DSS | 1.4 DSS
COc1cc(Nc2ncc(F)c(Nc3ccc4c(n3)NC(=O)C(C)(C)O4)n2)cc(OC)c1OC [Tamatinib] | 0.6 DSS | 3.7 DSS | 6 DSS | 0 DSS | 4.3 DSS | 0.9 DSS
CC/C(=C(\c1ccccc1)c1ccc(OCCN(C)C)cc1)c1ccccc1 [Tamoxifen] | 1.3 DSS | 1.3 DSS | 0 DSS | 3.3 DSS | 0 DSS | 1 DSS
COc1cc2c(N3CCN(C(=O)Nc4ccc(OC(C)C)cc4)CC3)ncnc2cc1OCCCN1CCCCC1 [Tandutinib] | 0 DSS | 0 DSS | 0 DSS | 0 DSS | 0 DSS | 0 DSS
O[C@H]1CC[C@H](Nc2ncc3nc(Nc4c(F)cc(F)cc4F)n([C@H]4CCOC4)c3n2)CC1 [Tanzisertib] | 2 DSS | 0 DSS | 0.2 DSS | 1.4 DSS | 0 DSS | 1 DSS
C[C@@H](C(=O)O)c1ccc(-c2ccccc2)c(F)c1 [Tarenflurbil] | 0 DSS | 0 DSS | 0 DSS | 0.7 DSS | 0 DSS | 0 DSS
Cc1nc(-c2cn3c(n2)-c2ccc(-c4cnn(C(C)(C)C(N)=O)c4)cc2OCC3)n(C(C)C)n1 [Taselisib] | 9.2 DSS | 4.7 DSS | 10.7 DSS | 3.1 DSS | 0 DSS | 3.3 DSS
COc1cccc2c1c(O)c(C(=O)N(C)c1ccc(C(F)(F)F)cc1)c(=O)n2C [Tasquinimod] | 0 DSS | 0 DSS | 0 DSS | 0 DSS | 0 DSS | 0 DSS
CCN(c1cc(-c2ccc(CN3CCOCC3)cc2)cc(C(=O)NCc2c(C)cc(C)[nH]c2=O)c1C)C1CCOCC1 [Tazemetostat] | 0 DSS | 0 DSS | 0 DSS | 0 DSS | 0 DSS | 0 DSS
CNC(=O)c1cc(COc2nnc(Nc3ccc(Cl)cc3)c3ccoc23)ccn1 [Telatinib] | 0 DSS | 0.4 DSS | 16.6 DSS | 1.1 DSS | 0 DSS | 0 DSS
Cn1nnc2c(C(N)=O)ncn2c1=O [Temozolomide] | 0 DSS | 2.2 DSS | 9.1 DSS | 0 DSS | 0 DSS | 9.8 DSS

Compound | drug sensitivity score [1, 3] | drug sensitivity score ([1]; co-cultured fibroblast: WI38) | drug sensitivity score [1, 4] | drug sensitivity score [2, 3] | drug sensitivity score ([2]; co-cultured fibroblast: WI38) | drug sensitivity score [2, 4]
CO[C@H]1C[C@@H]2CC[C@@H](C)[C@@](O)(O2)C(=O)C(=O)N2CCCC[C@H]2C(=O)O[C@H]([C@H](C)C[C@@H]2CC[C@@H](OC(=O)C(C)(CO)CO)[C@H](OC)C2)CC(=O)[C@H](C)/C=C(\C)[C@@H](O)[C@@H](OC)C(=O)[C@H](C)C[C@H](C)/C=C/C=C/C=C/1C [Temsirolimus] | 16.8 DSS | 14.2 DSS | 8.6 DSS | 8.8 DSS | 0 DSS | 11 DSS
COc1cc([C@@H]2c3cc4c(cc3[C@@H](O[C@@H]3O[C@@H]5CO[C@@H](c6cccs6)O[C@H]5[C@H](O)[C@H]3O)[C@H]3COC(=O)[C@H]23)OCO4)cc(OC)c1O [Teniposide] | 0 DSS | 0 DSS | 0 DSS | 0 DSS | 0 DSS | 0.4 DSS
CN1CCC(COc2cnc(-c3cccc(Cn4nc(-c5cccc(C#N)c5)ccc4=O)c3)nc2)CC1 [Tepotinib] | 0.2 DSS | 0 DSS | 3 DSS | 0 DSS | 0 DSS | 1.8 DSS
COc1cc2c(Nc3ccc(Cl)c(Cl)c3F)ncnc2cc1OC[C@@H]1C[C@@H]2CN(C)C[C@@H]2C1 [Tesevatinib] | 5 DSS | 1.4 DSS | 11.7 DSS | 3.3 DSS | 0.4 DSS | 3.4 DSS
O=C1CCC(N2C(=O)c3ccccc3C2=O)C(=O)N1 (centres undefined) [Thalidomide] | 0 DSS | 0 DSS | 0 DSS | 0 DSS | 0 DSS | 0 DSS
Nc1nc2[nH]cnc2c(=S)[nH]1 [Thioguanine] | 5.3 DSS | 5.7 DSS | 7.7 DSS | 4.8 DSS | 7.3 DSS | 13.6 DSS
O=c1sn(-c2cccc3ccccc23)c(=O)n1Cc1ccccc1 [Tideglusib] | 0 DSS | 0 DSS | 0 DSS | 0.4 DSS | 1.5 DSS | 0 DSS
Cn1cncc1[C@@](N)(c1ccc(Cl)cc1)c1ccc2c(c1)c(-c1cccc(Cl)c1)cc(=O)n2C [Tipifarnib] | 14.9 DSS | 18.3 DSS | 12.9 DSS | 5.5 DSS | 2.5 DSS | 12.5 DSS
CC#CC(=O)N1CC[C@@H](n2c(=O)n(-c3ccc(Oc4ccccc4)cc3)c3c(N)ncnc32)C1 [Tirabrutinib] | 1.4 DSS | 0 DSS | 0 DSS | 0 DSS | 0 DSS | 0 DSS
O=C1NC(=O)[C@@H](c2cn3c4c(cccc24)CCC3)[C@@H]1c1c[nH]c2ccccc12 [Tivantinib] | 5.4 DSS | 5.9 DSS | 14 DSS | 4 DSS | 6.4 DSS | 3.8 DSS
COc1cc2nccc(Oc3ccc(NC(=O)Nc4cc(C)on4)c(Cl)c3)c2cc1OC [Tivozanib] | 5.7 DSS | 3.8 DSS | 0.4 DSS | 2.8 DSS | 8.9 DSS | 4.9 DSS
C[C@@H]1CCN(C(=O)CC#N)C[C@@H]1N(C)c1ncnc2[nH]ccc12 [Tofacitinib] | 0 DSS | 0 DSS | 12.2 DSS | 0 DSS | 0 DSS | 0 DSS
CC[C@@]1(O)C(=O)OCc2c1cc1n(c2=O)Cc2cc3c(CN(C)C)c(O)ccc3nc2-1 [Topotecan] | 20.9 DSS | 25.7 DSS | 28 DSS | 22.2 DSS | 23.1 DSS | 30.4 DSS
CN(C)CCOc1ccc(/C(=C(/CCCl)c2ccccc2)c2ccccc2)cc1 [Toremifene] | 2.1 DSS | 0.8 DSS | 2.3 DSS | 3.2 DSS | 0 DSS | 3.5 DSS
CC(C)C[C@@H](C(=O)N[C@H](C(=O)OC1CCCC1)c1ccccc1)[C@H](O)C(=O)NO [Tosedostat] | 2 DSS | 1.3 DSS | 2.1 DSS | 14.5 DSS | 11.4 DSS | 6.5 DSS
Cc1cc(Nc2cc(N3CCN(C)CC3)nc(Sc3ccc(NC(=O)C4CC4)cc3)n2)n[nH]1 [Tozasertib] | 22 DSS | 19.4 DSS | 23.7 DSS | 20.1 DSS | 19.5 DSS | 20.9 DSS
CC(=O)Nc1cccc(-n2c(=O)n(C3CC3)c(=O)c3c(Nc4ccc(I)cc4F)n(C)c(=O)c(C)c32)c1 [Trametinib] | 9 DSS | 7.4 DSS | 7.6 DSS | 10.7 DSS | 3.9 DSS | 13.5 DSS
CC1=C(/C=C/C(C)=C/C=C/C(C)=C/C(=O)O)C(C)(C)CCC1 [Tretinoin] | 0 DSS | 0 DSS | 8.2 DSS | 0 DSS | 0 DSS | 0 DSS
NC(=S)N/N=C/c1ncccc1N [Triapine] | 4.5 DSS | 6.3 DSS | 8.2 DSS | 5.2 DSS | 9.3 DSS | 8.7 DSS
